The numbers were not newly measured in PMC12441791, “Structural modifications of toxyloxanthone C and macluraxanthone isolated from Maclura cochinchinensis: cytotoxicity, antibacterial activity, and in silico studies” (RSC Advances, 2025), which cites them from elsewhere.

≈ marks a conversion by molar mass, not a printed value.

Holding throughout (parameters): method as in PMID 35422182
Data set [1] deals with HepG2 (human hepatocellular carcinoma) cells. The settings on record: parent xanthones, previous report, read-out: Cytotoxicity (IC50, μM) HepG2; cited from earlier work.
For data set [2], the system named is A549 (human lung carcinoma) cells. The settings on record: parent xanthones, previous report, read-out: Cytotoxicity (IC50, μM) A549; cited from earlier work.
The subject of data set [3] is Bacillus subtilis ATCC 6633. The conditions noted are these: parent xanthones, previous report; cited from earlier work.
For data set [4], the system named is HelaS3 (human cervical carcinoma) cells. The settings on record: parent xanthones, previous report, read-out: Cytotoxicity (IC50, μM) HelaS3; cited from earlier work.
In data set [5] the test system is Methicillin resistant Staphylococcus aureus (MRSA). The conditions noted are these: parent xanthones, previous report; cited from earlier work.
Data set [6] has as its system Vero (African green monkey kidney) cells. The settings on record: parent xanthones, previous report, read-out: Cytotoxicity (IC50, μM) Vero; cited from earlier work.
In data set [7] the test system is Bacillus cereus ATCC 11778. The conditions noted are these: parent xanthones, previous report; cited from earlier work.
A further data set concerns S. aureus ATCC 25923. The settings on record: parent xanthones, previous report; cited from earlier work.

For the compound `CC1Oc2cc3oc4c(O)c(O)ccc4c(=O)c3c(O)c2C1(C)C` (stereo not shown) [Compound 1, Toxyloxanthone C], the 50% inhibitory concentration (IC50) was 20.8 ± 2.57 µM in data set [1], 21.8 ± 4.89 µM in data set [2], 13.6 ± 1.11 µM in data set [4] and 8.52 ± 0.64 µM in data set [6]. For the same compound, the “MIC B. subtilis” value in data set [3] was 128 µg/mL (≈ 390 µM). In addition, the “MIC MRSA” value in data set [5] was 128 µg/mL (≈ 390 µM). The “MIC B. cereus” value in data set [7] is 128 µg/mL (≈ 390 µM). In addition, in the data set on S. aureus ATCC 25923, the “MIC S. aureus” value is 128 µg/mL (≈ 390 µM).
`C=CC(C)(C)c1c2c(c(O)c3c(=O)c4ccc(O)c(O)c4oc13)C=CC(C)(C)O2` [Compound 2, Macluraxanthone]: the IC50 in data set [1] is 5.26 ± 0.41 µM; in data set [2], 6.46 ± 0.98 µM; in data set [4], 1.59 ± 0.12 µM; in data set [6], 4.29 ± 0.6 µM. The “MIC B. subtilis” value in data set [3] is 64 µg/mL (≈ 162 µM). The “MIC MRSA” value in data set [5] was 16 µg/mL (≈ 40.6 µM). The “MIC B. cereus” value in data set [7] was 64 µg/mL (≈ 162 µM). For the same compound, the “MIC S. aureus” value with S. aureus ATCC 25923 is greater than 128 µg/mL.

For orientation: IC50 means the concentration needed to halve the response being measured.
